Measurements taken from ChEMBL document CHEMBL1131829, “Novel protein kinase C inhibitors: synthesis and PKC inhibition of beta-substituted polythiophene derivatives” (Bioorg Med Chem Lett, 1999).

Molecular target: Protein kinase C (PKC)
Assay: Inhibition of protein kinase C
Type: protein assay, Rattus norvegicus

Row | Compound | IC50
1 | OCc1csc(-c2ccc(CO)s2)c1 | > 0.001 M
2 | OCc1ccsc1 | > 0.004 M
3 | OCc1csc(-c2ccc(-c3cccs3)s2)c1 | 3e-06 M
4 | O=Cc1csc(-c2cccs2)c1 | 0.0005 M
5 | OCc1csc(-c2cccs2)c1 | > 0.001 M
6 | O=Cc1ccsc1 | > 0.004 M
7 | CN1CCN(CCCN2c3ccccc3Sc3ccc(C(F)(F)F)cc32)CC1 [TRIFLUOPERAZINE] | 0.0005 M

Further lines, results first:

Row | IC50 | Compound
8 | 0.0003 M | OCc1csc(-c2ccc(-c3ccc(CO)s3)s2)c1
9 | 7e-07 M | O=Cc1csc(-c2ccc(-c3ccc(C=O)s3)s2)c1
10 | 0.001 M | O=Cc1csc(-c2ccc(C=O)s2)c1
11 | 0.00003 M | O=Cc1csc(-c2ccc(-c3ccc(CO)s3)s2)c1
12 | 3e-07 M | O=Cc1ccc(-c2ccc(-c3cc(CO)cs3)s2)s1
13 | 5e-06 M | O=Cc1csc(-c2ccc(-c3cccs3)s2)c1
